Data as given in PMC10498151 (RSC Advances, 2023).
Values after ≈ are worked out from the molar mass of the structure shown. Read-outs that look alike come from different tables or passages of the source.

Columns and labels:
Porphyromonas sp. (CI) = assay: microbe, parasite or virus in culture; type: cell-based
Cutibacterium acnes = assay: microbe, parasite or virus in culture; type: cell-based
[1] = tested on: Porphyromonas asaccharolytica (CI); assay: microbe, parasite or virus in culture; type: cell-based
[2] = tested on: Bacteroides ovatus (ATCC 84834); assay: microbe, parasite or virus in culture; type: cell-based; details: ATCC84834
[3] = tested on: Porphyromonas gingivalis (ATCC 33277); assay: microbe, parasite or virus in culture; type: cell-based
[4] = tested on: Eggerthella lenta (ATCC 43055); assay: microbe, parasite or virus in culture; type: cell-based; details: ATCC43055
Bacteroides fragilis = assay: microbe, parasite or virus in culture; type: cell-based
[5] = tested on: Prevotella intermedia/nigres-cens (ATCC 25611); assay: microbe, parasite or virus in culture; type: cell-based, Prevotella intermedia/nigrescens; details: ATCC25611
[6] = tested on: Peptostreptococcus anaerobius (CI); assay: microbe, parasite or virus in culture; type: cell-based
Fusobacterium mortiferum = assay: microbe, parasite or virus in culture; type: cell-based
[7] = tested on: Parvimonas micra (ATCC 3870); assay: microbe, parasite or virus in culture; type: cell-based
Fusobacterium nucleatum = assay: microbe, parasite or virus in culture; type: cell-based
C. difficile = C. difficile infection, review ref 25; cited from earlier work
[8] = tested on: Clostridium sporogenes (ATCC 3584); assay: microbe, parasite or virus in culture; type: cell-based; details: ATCC3584
[9] = tested on: Bacteroides thetaiotaomicron (ATCC 29148); assay: microbe, parasite or virus in culture; type: cell-based; details: ATCC29148
Clostridium difficile = assay: microbe, parasite or virus in culture; type: cell-based
[10] = tested on: Clostridium butyricum (CI); assay: microbe, parasite or virus in culture; type: cell-based
Finegoldia magna (CI) = assay: microbe, parasite or virus in culture; type: cell-based
[11] = tested on: Actinomyces odontolyticus (CI); type: cell-based
Prevotella spp. = type: cell-based
[12] = tested on: Other Bacteroides spp. and Parabacteroides; type: cell-based, Bacteroides spp. and Parabacteroides distasonis
[13] = tested on: Clostridium sordellii (CI); type: cell-based
Clostridium perfringens = type: cell-based
[14] = determined in PBS buffer ref 47; cited from earlier work
[15] = cited from earlier work
[16] = Porphyromonas gingivalis, ATCC33277
[17] = Bacteroides fragilis, ATCC25285
[18] = Fusobacterium nucleatum, ATCC25586
[19] = Clostridioides difficile, ATCC43255

Compound	MIC (Porphyromonas sp. (CI); Porphyromonas)	MIC [1]	MIC [2]	MIC [4]	MIC (Bacteroides fragilis; [17])	MIC [5]	MIC [6]	MIC ([7]; Parvimonas micra, ATCC3870)	MIC (Fusobacterium nucleatum; [18])	MIC [8]	MIC [9]	MIC (Clostridium difficile; [19])	MIC [10]	MIC (Finegoldia magna (CI); Finegoldia magna)	Selectivity index (>100 μg mL^−1/MIC90) (Bacteroides fragilis)	Selectivity index (>100 μg mL^−1/MIC90) (Fusobacterium nucleatum)	Selectivity index (>100 μg mL^−1/MIC90) (Prevotella spp.)	Selectivity index (>100 μg mL^−1/MIC90) [12]	Selectivity index (>100 μg mL^−1/MIC90) (Clostridium perfringens)	also measured
Cc1ncc([N+](=O)[O-])n1CCO [Mtz, metronidazole, reference compound]	0.125 µg/mL (≈ 0.73 µM)	0.25 µg/mL (≈ 1.46 µM)	1 µg/mL (≈ 5.84 µM)	0.25 µg/mL (≈ 1.46 µM)	0.25 µg/mL (≈ 1.46 µM)	1 µg/mL (≈ 5.84 µM)	0.125 µg/mL (≈ 0.73 µM)	0.125 µg/mL (≈ 0.73 µM)	0.125 µg/mL (≈ 0.73 µM)	0.25 µg/mL (≈ 1.46 µM)	1 µg/mL (≈ 5.84 µM)	0.25 µg/mL (≈ 1.46 µM)	≤ 0.06 µg/mL	0.125 µg/mL (≈ 0.73 µM)	–	–	–	–	–	MIC (Cutibacterium acnes): > 64 µg/mL; MIC [3, 16]: ≤ 0.06 µg/mL; MIC (Fusobacterium mortiferum): 0.25 µg/mL (≈ 1.46 µM); recurrence after treatment (C. difficile): 27.1%; treatment failure (C. difficile): 22.4%
CN[C@H](CC(C)C)C(=O)N[C@H]1C(=O)N[C@@H](CC(N)=O)C(=O)N[C@H]2C(=O)N[C@H]3C(=O)N[C@H](C(=O)N[C@H](C(=O)O)c4cc(O)cc(O)c4-c4cc3ccc4O)[C@H](O)c3ccc(c(Cl)c3)Oc3cc2cc(c3O[C@@H]2O[C@H](CO)[C@@H](O)[C@H](O)[C@H]2O[C@H]2C[C@](C)(N)[C@H](O)[C@H](C)O2)Oc2ccc(cc2Cl)[C@H]1O [vancomycin]	–	–	–	–	–	–	–	–	–	–	–	–	–	–	–	–	–	–	–	recurrence after treatment (C. difficile): 24.0%; treatment failure (C. difficile): 14.2%
5-phenyl-2,3-dihydropyrimidoquinoxaline N-oxide [1a]	–	–	–	–	–	–	–	–	–	–	–	–	–	–	>100	>100	>100	>100	>6	MIC (Porphyromonas sp. (CI)): 0.125 µg/mL; MIC [3]: ≤0.06 µg/mL; MIC [11]: 32 µg/mL; MIC (Bacteroides fragilis): 1 µg/mL; MIC [7]: 0.125 µg/mL; MIC (Fusobacterium nucleatum): 0.125 µg/mL; Cell viability (RAW 264.7 cells): 98%; MIC (Clostridium difficile): 4 µg/mL; Selectivity index (>100 μg mL^−1/MIC90) (Clostridium difficile): >25; MIC [13]: 16 µg/mL; logP: experimental log of the octanol/water partition coefficient [14]: −0.149; MIC (Finegoldia magna (CI)): 2 µg/mL
O=[N+]([O-])c1ccc(C2=NCCCN2c2ccccc2)cc1 [1-phenyl-2-4-nitrophenyl-1,4,5,6-tetrahydropyrimidine]	–	–	–	–	–	–	–	–	–	–	–	–	–	–	–	–	–	–	–	pKa [15]: 10.51
[O-][N+]1=C(c2ccc(Cl)cc2)C2=NCCN2c2ccccc21 [1j, 4-(4-Chlorophenyl)-1,2-dihydroimidazo[1,2-a]quinoxaline 5-oxide]	≤ 0.06 µg/mL	≤ 0.06 µg/mL	0.125 µg/mL (≈ 0.42 µM)	≤ 0.06 µg/mL	0.125 µg/mL (≈ 0.42 µM)	≤ 0.06 µg/mL	0.25 µg/mL (≈ 0.84 µM)	≤ 0.06 µg/mL	≤ 0.06 µg/mL	0.25 µg/mL (≈ 0.84 µM)	0.125 µg/mL (≈ 0.42 µM)	0.25 µg/mL (≈ 0.84 µM)	≤ 0.06 µg/mL	0.25 µg/mL (≈ 0.84 µM)	>800	>800	>1667	>800	>100	MIC [3, 16]: ≤ 0.06 µg/mL; logP: experimental log of the octanol/water partition coefficient [14]: 1.292
O=[N+]([O-])c1ccc(C2=NCCN2c2ccccc2)cc1 [its imidazoline homologue]	–	–	–	–	–	–	–	–	–	–	–	–	–	–	–	–	–	–	–	pKa [15]: 7.65
O=[N+]([O-])c1ccc(C2=[N+]([O-])c3ccccc3N3CCN=C23)cc1 [1k, 4-(4-Nitrophenyl)-1,2-dihydroimidazo[1,2-a]quinoxaline 5-oxide]	≤ 0.06 µg/mL	≤ 0.06 µg/mL	≤ 0.06 µg/mL	≤ 0.06 µg/mL	≤ 0.06 µg/mL	≤ 0.06 µg/mL	≤ 0.06 µg/mL	≤ 0.06 µg/mL	≤ 0.06 µg/mL	≤ 0.06 µg/mL	≤ 0.06 µg/mL	≤ 0.06 µg/mL	≤ 0.06 µg/mL	1 µg/mL (≈ 3.24 µM)	>1667	>1667	>1667	>1667	>800	MIC (Cutibacterium acnes): 32 µg/mL (≈ 104 µM); Selectivity index (IS) (RAW 264.7 cells): > 800; Selectivity index (>100 μg mL^−1/MIC90) (Clostridium difficile): >1667
